Data published in PubChem BioAssay AID179 (DTP/NCI, 2004).
Values joined by “and” are separate entries in the source; they are usually repeats but may differ in a detail not shown here. Equal values may be shown once. Active and inactive are the calls of the source.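 The calls were made as follows: active = compounds giving half or more protection of infected cells from virus-caused growth loss, again on retest; inactive = the rest.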 Where a SMILES comes first, the peptide text is derived from it.

System: CEM cells HIV-1 protection, formazan growth assay
Experiment: NCI AIDS Antiviral Assay
Conditions: for IC50: measured here: growth of uninfected CEM cells
How it was run: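 Human CEM cells, uninfected and HIV-1-infected, exposed to five drug concentrations; growth measured by soluble formazan assay and scored as percent protection from infection, with protecting compounds retested.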

C=CC(C)(C)n1cc(C2=C(O)C(=O)C(c3c(CC=C(C)C)[nH]c4ccccc34)=C(O)C2=O)c2ccccc21
EC50: > 200 µM | IC50: 2.57 µM

CC(=O)N(C(C)=O)c1ncc(-n2nc(-c3ccccc3)cc2-c2ccccc2)c(-c2ccccc2)n1
EC50: > 200 µM | IC50: 115 µM

O=C1CSC(c2cccc([N+](=O)[O-])c2)N1c1ccc(-c2ccc(-n3c(-c4ccccc4)nc4ccccc4c3=O)cc2)cc1 (centres undefined)
EC50: > 200 µM | IC50: 28.2 µM

CC(=O)C(CN1CCOCC1)C(c1ccccc1)c1c(O)c2ccccc2oc1=O (centres undefined)
EC50: > 89.1 µM | IC50: 55 µM

O=C1C(=O)c2ccccc2C(O)=C1Nc1ccc(Cl)cc1
outcome: inactive

[B-]1n2ccc[n+]2[B-]n2ccc[n+]21
EC50: > 200 µM | IC50: > 200 µM

OC1(c2ccccc2)OC(C#Cc2ccccc2)(c2ccccc2)c2ccccc21 (centres undefined)
outcome: inactive

O=C1c2ccccc2C(=O)c2nc3c(O)cccc3cc21
EC50: > 19.1 µM | IC50: > 19.1 µM

Cc1ccc(S(=O)(=O)Nn2c3c(cc(C#N)c2=O)CCCC3)cc1
EC50: > 200 µM | IC50: > 200 µM

O=C1C2C3CCC(O3)C2C(=O)N1N1C(=O)C2C3CCC(O3)C2C1=O (centres undefined)
EC50: > 200 µM | IC50: 43.7 µM

CC1(C)OC2C(CF)OC(n3cc(Br)c(=O)[nH]c3=O)C2O1 (centres undefined)
EC50: > 200 µM | IC50: > 200 µM

O=C(O)[C@H]1C[C@H](O)CN1C(=O)c1ccccc1SSc1ccccc1C(=O)N1C[C@H](O)C[C@H]1C(=O)O
EC50: > 200 µM | IC50: > 200 µM

O=S1(=O)c2ccccc2N2C(c3ccccc3)=NOC2(c2ccccc2)CC1c1ccc(Br)cc1 (centres undefined)
outcome: inactive

CCN(CC)C(=S)N/N=C(\C)c1cccc(C)n1
EC50: > 2 µM | IC50: 0.0132 µM

CC1CC2NC(C)CC3NC(C)CC(N1)N32 (centres undefined)
EC50: > 794 µM | IC50: > 794 µM

C/C(=N\NS(=O)(=O)c1ccc(C)cc1)c1cc2ccccc2n1C
EC50: > 79.4 µM | IC50: > 79.4 µM

CCCC(C)SP(=S)(SC(C)CCC)SC(C)CCC (centres undefined)
EC50: > 200 µM | IC50: > 200 µM

C=CCNC(=S)/N=C/c1c(O)c2ccccc2oc1=O
EC50: > 64.6 µM | IC50: 43.7 µM

CNNCc1ccc(C(=O)NC(C)C)cc1
EC50: > 977 µM | IC50: 229 µM

C[N+]1(CCCl)CCc2ccc([N+](=O)[O-])cc2C1 (centres undefined)
EC50: > 200 µM | IC50: > 200 µM

CCCCc1ccc(Nc2nc(N)c3[nH]cnc3n2)cc1
EC50: > 200 µM | IC50: 24.5 µM

COC(=O)N1N=C(c2ccccc2)C1c1ccccc1 (centres undefined)
EC50: > 200 µM | IC50: 38 µM

C[N+](C)(C)CCCCCc1c2nc(c(CCCCC[N+](C)(C)C)c3ccc([nH]3)c(CCCCC[N+](C)(C)C)c3ccc([nH]3)c(CCCCC[N+](C)(C)C)c3nc1C=C3)C=C2
EC50: > 100 µM | IC50: 57.5 µM

CCN1C(=O)C(=C/C=C/C=C2/N(C)c3ccccc3C2(C)C)C(=O)N(CC)C1=S
EC50: > 200 µM | IC50: 18.6 µM

N#C/C(=C\c1cc(Br)c(O)c(Br)c1)c1cccnc1
EC50: > 100 µM | IC50: 44.7 µM

NNC(=O)Cn1ccnn1
EC50: > 200 µM | IC50: > 200 µM

CC(CC/C=C/CO)C1CC(OS(=O)(=O)O)C2(O)C1(C)CCC1C3CCC(O)C(O)C3C(O)CC12O (centres undefined)
outcome: inactive

CCCCCC(CO)C(O)(C(F)(F)F)C(F)(F)F (centres undefined)
EC50: > 200 µM | IC50: 70.8 µM

O=C1c2nc3n(c2C(=O)c2c1nc1n2CCC1)CCC3
EC50: > 200 µM | IC50: 3.72 µM

O=C1CCCCCCCCCCC(=O)N2CCOCCOCCN1Cc1cccc(n1)C2
EC50: > 407 µM | IC50: 316 µM

O=C(O)c1ccccc1CC(Cc1ccccc1)C(=O)O (centres undefined)
EC50: > 200 µM | IC50: 126 µM

COc1ccc(C(=O)/C=C/c2ccc(OCC#N)cc2)cc1
EC50: > 200 µM | IC50: 15.8 µM

O=C(O)CCCC(=O)Nn1c(Cc2ccc(Cl)cc2)n[nH]c1=O
EC50: > 200 µM | IC50: > 200 µM

C=C1C(=O)OC2/C=C(\C)C3OC3/C=C(/C(=O)OC)C(OC(C)=O)C(OC(=O)C(C)(O)C(C)OC(C)=O)C12 (centres undefined)
EC50: > 129 µM | IC50: 0.832 µM

CCOc1ccccc1NC(=O)CC1C(=O)Nc2ccccc2S1=O (centres undefined)
EC50: > 38 µM | IC50: > 38 µM

CC(=NNC(=S)Nc1cccc(C)c1)c1cccc(C(C)=NNC(=S)Nc2cccc(C)c2)n1
EC50: > 200 µM | IC50: 27.5 µM

CCN(CC)CCOC(=O)c1c(C)oc2cc3c(C(=O)OCCN(CC)CC)c(C)oc3cc12
EC50: > 200 µM | IC50: 6.03 µM

c1ccc(C2N3CCCCC3[C@@H]3c4[nH]c5ccccc5c4CCN23)nc1 (some centres undefined)
EC50: > 105 µM | IC50: > 105 µM

COc1cc2ccc(/C(C)=N/OC(C)=O)cc2cc1OC
outcome: inactive

COC(=O)c1c(C(=O)OC)c(C(c2ccccc2)c2ccccc2)n(-c2ccccc2)c1Cl
EC50: > 200 µM | IC50: 64.6 µM

O=c1[nH]c(=O)c2nnoc2[nH]1
EC50: > 200 µM | IC50: 75.9 µM

CC1CC2Oc3ccc(Cl)cc3C(=O)N2O1 (centres undefined)
EC50: > 200 µM | IC50: > 200 µM

CCCCCCCCNC(=O)/C(=C\c1ccc2c(c1)OCO2)NC(=O)c1ccccc1
EC50: > 58.9 µM | IC50: 45.7 µM

CC(C)(C)C1CCC2c3c([nH]c4ccccc34)C3C(=O)N(c4cc(Cl)ccc4Cl)C(=O)C3C2C1 (centres undefined)
EC50: > 200 µM | IC50: 19.1 µM

COc1ccc(C(OCC2OC(n3cnc4c(=O)n(Cc5ccccc5[N+](=O)[O-])nnc43)C(O)C2O)(c2ccccc2)c2ccc(OC)cc2)cc1 (centres undefined)
outcome: inactive

Nc1nnc[se]1
EC50: > 200 µM | IC50: 3.63 µM

COc1ccc2c(c1)CCN=C2Cc1cc(OC)c(OC)cc1CCCl
EC50: > 200 µM | IC50: 53.7 µM

CC(=O)OCC12CCC3C4(C)CCCC(C)(C)C4CCC3(C)C1CC(C1=CC(=O)OC1O)O2 (centres undefined)
EC50: > 200 µM | IC50: 1.05 µM

O=S1(=O)C=C2CCCCC21 (centres undefined)
EC50: > 1580 µM | IC50: > 1580 µM

CC(C)(C)OC(=O)N1CCC(NC(=O)NC2CCN(C(=O)OC(C)(C)C)CC2)CC1
EC50: > 200 µM | IC50: > 200 µM

c1ccc2cc(CNCCCCNCCCNCc3ccc4ccccc4c3)ccc2c1
EC50: > 200 µM | IC50: 0.257 µM

Nc1ccc(N=Nc2ccc(/C=C/c3ccc(N=Nc4ccc(N)c5ccccc45)cc3S(=O)(=O)O)c(S(=O)(=O)O)c2)c2ccccc12
EC50: > 50.1 µM | IC50: 37.2 µM

Clc1ccc(C2=Nc3ccccc3SC(c3cccs3)C2)cc1 (centres undefined)
EC50: > 7.59 µM | IC50: > 7.59 µM

Nc1c(C(=O)O)nnc2ccc(Cl)cc12
EC50: > 200 µM | IC50: 186 µM

N#CC1=C2SCCN2C(=O)C(C#N)C12CCCCC2 (centres undefined)
EC50: > 200 µM | IC50: > 200 µM

COC12OC3(C4OC41)C(C(=O)O[C@H]3CO)C2S(=O)(=O)c1ccccc1 (some centres undefined)
EC50: > 200 µM | IC50: > 200 µM

COC(=O)C1(Cc2ccccc2)Cc2ccccc2C1
EC50: > 200 µM | IC50: 35.5 µM

COc1cc(Cc2cc3c(c(C(=O)O)c2Br)OCO3)cc(OC)c1OC
EC50: > 200 µM | IC50: 44.7 µM

C=CC[C@]12CC(OC)C(OC)CC1(OC)O[C@@H](c1cc(OC)c(OC)c(OC)c1)[C@H]2C (some centres undefined)
EC50: > 200 µM | IC50: 155 µM

O=C1CC2c3ccccc3CCC2c2ccccc21 (centres undefined)
EC50: > 200 µM | IC50: 7.59 µM

Nc1c2ccccc2nc2ccc(C(=O)Nc3ccc(S(N)(=O)=O)cc3)cc12
EC50: > 200 µM | IC50: > 200 µM

Cc1ccc(Cl)cc1N=NC(=O)NNc1cc(Cl)ccc1C
EC50: > 200 µM | IC50: 25.1 µM

CCN(CC)C(=O)C(C)n1cc(C)c(=O)[nH]c1=O (centres undefined)
EC50: > 977 µM | IC50: > 977 µM

CC(=O)N(O)C(C)=O
EC50: > 2140 µM | IC50: 1780 µM

CC(C)[C@H]1CO[C@@H]2CCC(=O)N12
EC50: > 1050 µM | IC50: > 1050 µM

COCCOCCOCCOc1cccc2c1C(=O)c1cccc(OCCOCCOCCOC)c1C2=O
outcome: inactive

CC1CC/C(=C\c2ccc(N(C)C)cc2)C2=C1C(c1ccc(N(C)C)cc1)NC(=S)N2 (centres undefined)
EC50: > 100 µM | IC50: > 100 µM

CC(C)(C)OC(=O)NC(Cc1ccc(OCc2ccccc2)cc1)C(=O)NC(COCc1ccccc1)C(=O)Oc1c(Cl)c(Cl)c(Cl)c(Cl)c1Cl (centres undefined)
EC50: > 100 µM | IC50: 44.7 µM

C/C=C/c1cc(=O)c([C@@H]2OC(=O)c3cc(OC)cc(OC)c32)co1
EC50: > 200 µM | IC50: 83.2 µM

N#Cc1cccc(CSc2ncnc3nc[nH]c23)c1
EC50: > 200 µM | IC50: 81.3 µM

CC1=CC(=O)/C(=C/N2CCNC2=S)C(=O)O1
EC50: > 200 µM | IC50: > 200 µM

O=S(=O)(/C=C/c1ccc(F)cc1)Cc1ccc(CS(=O)(=O)/C=C/c2ccc(F)cc2)cc1
EC50: > 27.5 µM | IC50: > 27.5 µM

CC(/C=N/NC1=NCCCCN1)=N\NC1=NCCCCN1
EC50: > 200 µM | IC50: 120 µM

CCCCCCCCCCCCCCCC=C(c1cc(Cl)c(O)c(C(=O)O)c1)c1cc(Cl)c(O)c(C(=O)O)c1
EC50: 20.9 µM | IC50: 34.7 µM

O=C1/C(=C/c2ccccc2F)CCc2ccccc21
EC50: > 10.7 µM | IC50: > 10.7 µM

O=[N+]([O-])c1cc(C(F)(F)F)ccc1S(=O)(=O)c1ccccc1
EC50: > 77.6 µM | IC50: 3.89 µM and 1.26 µM

Cc1cc(=O)[nH]c2cc(NC(=O)C(C)NC(=O)C(C)NC(=O)C(C)NC(=O)OC(C)(C)C)ccc12 (centres undefined)
EC50: > 200 µM | IC50: > 200 µM

O=C(O/N=C1/CCC/C1=C\c1ccccc1)c1ccccc1
outcome: inactive

CCC(C)NC(=O)/C(=C\c1ccccc1O)NC(=O)c1ccccc1 (centres undefined)
EC50: > 200 µM | IC50: > 200 µM

COc1ccc(/C=C2\N=C(NN)N=C2Cl)cc1
EC50: > 200 µM | IC50: > 200 µM

CC(C)C(NC(=O)C(N)CCCCN)C(=O)NC(CCCCN)C(=O)NCC(=O)NC(C(=O)O)C(C)O (centres undefined) (H-KVKGT-OH; configuration not given here)
outcome: inactive

O=C(O)CC[C@]1(C(=O)O)NC(C(=O)O)Cc2[nH]cnc21 (some centres undefined)
EC50: > 891 µM | IC50: > 891 µM

CC(C)=CCC/C(C)=C\CCC1(C)OC(=O)C2CC21 (centres undefined)
EC50: > 200 µM | IC50: 81.3 µM and 36.3 µM

Cc1ccc(C(O)/C(=N/N)c2nc3ccc([N+](=O)[O-])cc3[nH]c2=O)cc1 (centres undefined)
EC50: > 537 µM | IC50: 457 µM

C=CCN(N=O)C(=O)NCCCC(NC(C)=O)C(=O)NCc1ccccc1 (centres undefined)
EC50: > 661 µM | IC50: > 661 µM

COc1ccc(/C(Cl)=C(\C=O)c2ccccc2)cc1OC
outcome: inactive

COc1cc2ccc1OCc1cccc(n1)COc1ccc(cc1OC)C=NCCNCCN=C2
EC50: 132 µM | IC50: > 200 µM
